Laboratory results reported in patent US20250113823A1, “Arthropod Control Compositions” (priority 2022, published 2025).
Like-named read-outs stand apart in the source and are kept apart here.

Legend:
Aedes aegypti [1] = experiment: Warm Body assay, mosquito landings on treated warm body; format: in vivo; conditions: for pest or weed control at 3.2 µg/mL: 0.0032 mg/mL (Table 1); for pest or weed control at 7.1 µg/mL: 0.0071 mg/mL (Table 1); for pest or weed control at 35.7 µg/mL: 0.0357 mg/mL (Table 1); for pest or weed control at 53 µg/mL: 0.053 mg/mL (Table 1); for pest or weed control at 80 µg/mL: 0.08 mg/mL (Table 1); for pest or weed control at 178 µg/mL: 0.178 mg/mL (Table 1); for pest or weed control at 890 µg/mL: 0.89 mg/mL (Table 1); for pest or weed control at 2000 µg/mL: 2 mg/mL (Table 1); for pest or weed control at 4470 µg/mL: 4.47 mg/mL (Table 1)
Summary of the method: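 Compounds in ethanol (100 μL, various concentrations) were applied to a sandblasted glass dish covering the warm body (28.3 cm^2), with ethanol as control. Landings were counted automatically from 30 non-blood-fed, sugar-fed Aedes aegypti Rockefeller females aged 5–10 days, under 150 lux.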

Anopheles gambiae [2] = experiment: as above; format: in vivo; conditions: for pest or weed control at 3.2 µg/mL: 0.0032 mg/mL (Table 5); for pest or weed control at 80 µg/mL: 0.08 mg/mL (Table 5); for pest or weed control at 2000 µg/mL: 2 mg/mL (Table 5); for repellence (no mosquito landing on the attractive stimulus): with at least one of the two concentrations 0.447% & 1% (Table 4)
Procedure: Anopheles gambiae is also a model organism as it is anthropophilic and transmits malaria.
The controlling effect according to the present invention was assessed using an adapted Warm Body assay as defined in Kröber T, Kessler S, Frei J, Bourquin M, Guerin P M. 2010. J Am Mosq Control Assoc. 26: 381-386. In this in-vitro assay the number of mosquito landing on a warm body, simulating an attractive host treated with the tested stimuli, was measured in order to assess the repellence effect.
On the sandblasted glass Petri dish covering the warm body (28.3 cm^2), 100 μL of the compounds diluted at different concentrations in ethanol was applied. The number of mosquito landing on the warm body was counted for each stimulus and pure ethanol (solvent) as control.

Aedes aegypti [3] = experiment: Free flying room assay, spatial repellence with human volunteer; format: in vivo
Description: The goal of this large-scale test is to assess the propensity of stimulus released in the air to protect a human volunteer by limiting the mosquito presence in a protected space and the number of landing/biting. The protocol used to carry the test is following the guidelines indicated in WHO (2013; ISBN 978 92 4 150502 4).
A group of 50 Aedes aegypti female mosquitoes were introduced in one chamber of 25 m^3 one hour before the test started. The product was applied in the other chamber of 25 m^3 (“treated chamber”) and let evaporate for 30 minutes. The test started when the window separating the two chambers was opened in a tilt-on manner for another 30 minutes. Twenty minutes after the window was opened, a volunteer entered in the “treated chamber” and sat down for 10 minutes, exposing the forearm for the last 3 minutes to determine the probing activity (Protective Efficacy). Then, the connecting window was closed and the number of mosquitoes in each of the chambers was counted (Spatial Repellency). The negative controls were carried out following the same procedure but without the application of the stimulus. Three replicates of each treatment and of the negative control were conducted with three different volunteers.

Anopheles gambiae [4] = experiment: Arm-in-cage test on human volunteers over time; format: in vivo; conditions: for Complete Protection Time (no confirmed landing) / Number of mosquitoes landing on the treated arm (test): arm treated with 20%
Ixodes ricinus = experiment: Warm Plate assay, tick repellence; conditions: Ixodes ricinus, read-out: Percentage of repellence of ticks Ixodes ricinus on the warm plate
[5] = Aedes aegypti, 0.016 mg/mL (Table 3), read-out: Percentage of repellence of mosquitoes Aedes aegypti landing on the warm body
[6] = Aedes aegypti, 0.4 mg/mL (Table 3), read-out: Percentage of repellence of mosquitoes Aedes aegypti landing on the warm body
[7] = Aedes aegypti, 10 mg/mL (Table 3), read-out: Percentage of repellence of mosquitoes Aedes aegypti landing on the warm body
[8] = Anopheles gambiae, read-out: Percentage of repellence of mosquitoes Anopheles gambiae landing on the warm body
[9] = Anopheles gambiae, 0.178 mg/mL (Table 4), read-out: Percentage of repellence of mosquitoes Anopheles gambiae landing on the warm body
[10] = Anopheles gambiae, 0.178 mg/mL (Table 5), read-out: Percentage of repellence of mosquitoes Anopheles gambiae landing on the warm body
[11] = Anopheles gambiae, 0.267 mg/mL (Table 4), read-out: Percentage of repellence of mosquitoes Anopheles gambiae landing on the warm body
[12] = Anopheles gambiae, 0.267 mg/mL (Table 5), read-out: Percentage of repellence of mosquitoes Anopheles gambiae landing on the warm body
[13] = Anopheles gambiae, 0.4 mg/mL (Table 4), read-out: Percentage of repellence of mosquitoes Anopheles gambiae landing on the warm body
[14] = Anopheles gambiae, 0.4 mg/mL (Table 5), read-out: Percentage of repellence of mosquitoes Anopheles gambiae landing on the warm body
[15] = Anopheles gambiae, 4.47 mg/mL (Table 4), read-out: Percentage of repellence of mosquitoes Anopheles gambiae landing on the warm body
[16] = Anopheles gambiae, 4.47 mg/mL (Table 5), read-out: Percentage of repellence of mosquitoes Anopheles gambiae landing on the warm body
[17] = Anopheles gambiae, 10 mg/mL (Table 4), read-out: Percentage of repellence of mosquitoes Anopheles gambiae landing on the warm body
[18] = Anopheles gambiae, 10 mg/mL (Table 5), read-out: Percentage of repellence of mosquitoes Anopheles gambiae landing on the warm body
[19] = Aedes aegypti, read-out: Percentage of repellence of mosquitoes Aedes aegypti landing on the warm body
[20] = Aedes aegypti, 0.016 mg/mL (Table 1), read-out: Percentage of repellence of mosquitoes Aedes aegypti landing on the warm body
[21] = Aedes aegypti, 0.4 mg/mL (Table 1), read-out: Percentage of repellence of mosquitoes Aedes aegypti landing on the warm body
[22] = Aedes aegypti, 10 mg/mL (Table 1), read-out: Percentage of repellence of mosquitoes Aedes aegypti landing on the warm body

## COc1cc(C)cc(OC)c1OC [compound 1967, 3,4,5-trimethoxytoluene]
Aedes aegypti [1]; [5]
  pest or weed control at 16 µg/mL: 0%
Aedes aegypti [1]; [6]
  pest or weed control at 400 µg/mL: 12%
Aedes aegypti [1]; [7]
  pest or weed control at 10000 µg/mL: 81%
Anopheles gambiae [2]; [8]
  pest or weed control at 3.2 µg/mL: 0%
  pest or weed control at 80 µg/mL: 1%
  pest or weed control at 2000 µg/mL: 100%
Anopheles gambiae [2]; Anopheles gambiae, 0.016 mg/mL (Table 5), read-out: Percentage of repellence of mosquitoes Anopheles gambiae landing on the warm body
  pest or weed control at 16 µg/mL: 0%
Anopheles gambiae [2]; [9]
  pest or weed control at 178 µg/mL: 65%
Anopheles gambiae [2]; [10]
  pest or weed control at 178 µg/mL: 59%
Anopheles gambiae [2]; [11]
  pest or weed control at 267 µg/mL: 78%
Anopheles gambiae [2]; [12]
  pest or weed control at 267 µg/mL: 82%
Anopheles gambiae [2]; [13]
  pest or weed control at 400 µg/mL: 84%
Anopheles gambiae [2]; [14]
  pest or weed control at 400 µg/mL: 71%
Anopheles gambiae [2]; [15]
  pest or weed control at 4470 µg/mL: 100%
Anopheles gambiae [2]; [16]
  pest or weed control at 4470 µg/mL: 100%
Anopheles gambiae [2]; [17]
  pest or weed control at 10000 µg/mL: 100%
Anopheles gambiae [2]; [18]
  pest or weed control at 10000 µg/mL: 100%
Anopheles gambiae [2]; concentration ≥0.0178% (Table 5)
  repellence: > 50%
Anopheles gambiae [2]; concentrations ≥0.2% (Table 5)
  landing: no landing at all
Anopheles gambiae [2]; lowest concentration tested, 0.0178% (Table 4)
  percentage of repellence: above 60%
Anopheles gambiae [2]
  repellence (no mosquito landing on the attractive stimulus): 100%
Aedes aegypti [3]; in 3 minutes, negative control 60.7±2.5 landings
  mosquitoes landed on the volunteer: 22.3±3.2
Aedes aegypti [3]; large scale assay, 25 m3 chambers, compound released in the air
  Spatial Repellence: 47.3 ± 3.8%
Aedes aegypti [3]; large scale assay, probing on volunteer forearm, 3 minutes
  Protective efficacy: 63.1 ± 5.5%
Aedes aegypti [3]; negative control 82.5±3.7%
  mosquito entered the treated chamber: 43.5±3.2%

## CCCCN(CCC(=O)OCC)C(C)=O [IR3535, ethyl butylacetylaminopropionate, reference compound]
Anopheles gambiae [4]
  Complete Protection Time (no confirmed landing): 0.17 h

## Cc1ccc2c(c1)OCC(=O)CO2 [compound 1228, 7-methyl-1,5-benzodioxepin-3-one]
Aedes aegypti [1]; [5]
  pest or weed control at 16 µg/mL: 54%
Aedes aegypti [1]; [6]
  pest or weed control at 400 µg/mL: 74%
Aedes aegypti [1]; [7]
  pest or weed control at 10000 µg/mL: 100%
Aedes aegypti [1]; Aedes aegypti, highest tested concentration, 1% (Table 3), read-out: repellence
  pest or weed control at 1 %: > 90%
Aedes aegypti [1]; Aedes aegypti, lowest concentration of 0.0016% (Table 3), read-out: reduce the number of mosquito landings
  pest or weed control at 0.0016 %: > 50%
Aedes aegypti [1]; highest tested concentration, 1% (Table 3)
  mosquito landing within the two minutes of experiments: protect the attractive stimulus for any mosquito landing
Anopheles gambiae [2]; [8]
  pest or weed control at 3.2 µg/mL: 0%
  pest or weed control at 80 µg/mL: 0%
  pest or weed control at 2000 µg/mL: 92%
Anopheles gambiae [2]; [9]
  pest or weed control at 178 µg/mL: 48%
Anopheles gambiae [2]; [10]
  pest or weed control at 178 µg/mL: 48%
Anopheles gambiae [2]; [11]
  pest or weed control at 267 µg/mL: 85%
Anopheles gambiae [2]; [12]
  pest or weed control at 267 µg/mL: 71%
Anopheles gambiae [2]; [13]
  pest or weed control at 400 µg/mL: 65%
Anopheles gambiae [2]; [14]
  pest or weed control at 400 µg/mL: 66%
Anopheles gambiae [2]; Anopheles gambiae, 0.598 mg/mL (Table 5), read-out: Percentage of repellence of mosquitoes Anopheles gambiae landing on the warm body
  pest or weed control at 598 µg/mL: 69%
Anopheles gambiae [2]; [15]
  pest or weed control at 4470 µg/mL: 92%
Anopheles gambiae [2]; [16]
  pest or weed control at 4470 µg/mL: 92%
Anopheles gambiae [2]; [17]
  pest or weed control at 10000 µg/mL: 100%
Anopheles gambiae [2]; [18]
  pest or weed control at 10000 µg/mL: 100%
Anopheles gambiae [2]
  repellence (no mosquito landing on the attractive stimulus): 100%
Anopheles gambiae [4]
  Complete Protection Time (no confirmed landing): 1.33 h
Anopheles gambiae [4]; 30 min post-application
  Number of mosquitoes landing on the treated arm (test): 0
Anopheles gambiae [4]; 1 h post-application
  Number of mosquitoes landing on the treated arm (test): 0
Anopheles gambiae [4]; 2 h post-application
  Number of mosquitoes landing on the treated arm (test): 3.0 ± 1.8
Anopheles gambiae [4]; 3 h post-application
  Number of mosquitoes landing on the treated arm (test): 7.5 ± 1.1
Anopheles gambiae [4]; at 3 h, on two volunteers
  protection: 79.64%

## COC(=O)Oc1ccc(C)cc1OC [compound 1141, (2-methoxy-4-methylphenyl) methyl carbonate]
Aedes aegypti [1]; [19]
  pest or weed control at 3.2 µg/mL: 24%
  pest or weed control at 7.1 µg/mL: 39%
  pest or weed control at 35.7 µg/mL: 13%
  pest or weed control at 53 µg/mL: 50%
  pest or weed control at 80 µg/mL: 39%
  pest or weed control at 178 µg/mL: 67%
  pest or weed control at 890 µg/mL: 98%
  pest or weed control at 2000 µg/mL: 89%
  pest or weed control at 4470 µg/mL: 87%
Aedes aegypti [1]; [20]
  pest or weed control at 16 µg/mL: 17%
Aedes aegypti [1]; [21]
  pest or weed control at 400 µg/mL: 72%
Aedes aegypti [1]; [22]
  pest or weed control at 10000 µg/mL: 91%
Anopheles gambiae [2]; [15]
  pest or weed control at 4470 µg/mL: 100%
Anopheles gambiae [2]; [17]
  pest or weed control at 10000 µg/mL: 69%
Anopheles gambiae [2]
  repellence (no mosquito landing on the attractive stimulus): 100%
Ixodes ricinus
  pest or weed control at 400 µg/mL: 8.3%
  pest or weed control at 2000 µg/mL: 58.3%
  pest or weed control at 10000 µg/mL: 66.7%

## C=CCc1cc(OC)c(O)c(OC)c1 [compound 1191, 4-allyl-2,6-dimethoxyphenol]
Aedes aegypti [1]; [19]
  pest or weed control at 3.2 µg/mL: 60%
  pest or weed control at 7.1 µg/mL: 52%
  pest or weed control at 35.7 µg/mL: 68%
  pest or weed control at 53 µg/mL: 67%
  pest or weed control at 80 µg/mL: 62%
  pest or weed control at 178 µg/mL: 86%
  pest or weed control at 890 µg/mL: 98%
  pest or weed control at 2000 µg/mL: 97%
  pest or weed control at 4470 µg/mL: 98%
Aedes aegypti [1]; [20]
  pest or weed control at 16 µg/mL: 70%
Aedes aegypti [1]; Aedes aegypti, 0.119 mg/mL (Table 1), read-out: Percentage of repellence of mosquitoes Aedes aegypti landing on the warm body
  pest or weed control at 119 µg/mL: 50%
Aedes aegypti [1]; Aedes aegypti, 0.267 mg/mL (Table 1), read-out: Percentage of repellence of mosquitoes Aedes aegypti landing on the warm body
  pest or weed control at 267 µg/mL: 86%
Aedes aegypti [1]; [21]
  pest or weed control at 400 µg/mL: 93%
Aedes aegypti [1]; Aedes aegypti, 0.598 mg/mL (Table 1), read-out: Percentage of repellence of mosquitoes Aedes aegypti landing on the warm body
  pest or weed control at 598 µg/mL: 98%
Aedes aegypti [1]; [22]
  pest or weed control at 10000 µg/mL: 100%
Aedes aegypti [1]; since the lowest concentrations assessed (Table 1)
  reduce mosquito landing: ≥ 50%
Ixodes ricinus
  pest or weed control at 400 µg/mL: 41.7%
  pest or weed control at 2000 µg/mL: 58.3%
  pest or weed control at 10000 µg/mL: 91.7%
